Literature values as cited in PubChem BioAssay AID1259409 (Chemical Carcinogenesis Research Information System (CCRIS), 2018).

System: rodent chemically induced tumor inhibition, incidence and multiplicity
Experiment: CCRIS tumor inhibitor studies

Row | Compound | tumour outcome (control, treated, inhibition, significance) (Carcinogen: DIMETHYLNITROSAMINE, 62-75-9, Dose [Inhibitor]: 1 MG IN CASTOR OIL ADMINISTERED TO IMMATURE RATS 1/4 WK FOR LIFE BEGINNING 100 D POST CARCINOGEN DOSE (STUDY DURATION: 1, Route [Inhibitor]: SUBCUTANEOUS, Species: RAT, Strain/Sex: STRAIN-CD/MALE, Target Tissue: Type of Lesion: KIDNEY TUBULE: ADENOMA, Dose [Carcinogen]: 30 MG/KG IN DISTILLED WATER ONCE, Promoter: NONE USED) | tumour outcome (control, treated, inhibition, significance) (Carcinogen: DIMETHYLNITROSAMINE, 62-75-9, Dose [Inhibitor]: 1 MG IN CASTOR OIL ADMINISTERED TO IMMATURE RATS 1/4 WK FOR LIFE BEGINNING 100 D POST CARCINOGEN DOSE (STUDY DURATION: 1, Route [Inhibitor]: SUBCUTANEOUS, Species: RAT, Strain/Sex: STRAIN-CD/MALE, Target Tissue: Type of Lesion: KIDNEY: MESENCHYMAL TUMOR, Dose [Carcinogen]: 30 MG/KG IN DISTILLED WATER ONCE, Promoter: NONE USED) | tumour outcome (control, treated, inhibition, significance) (Carcinogen: DIMETHYLNITROSAMINE, 62-75-9, Dose [Inhibitor]: 1 MG IN CASTOR OIL ADMINISTERED TO IMMATURE RATS 1/4 WK FOR LIFE BEGINNING 100 D POST CARCINOGEN DOSE (STUDY DURATION: 1, Route [Inhibitor]: SUBCUTANEOUS, Species: RAT, Strain/Sex: STRAIN-CD/MALE, Target Tissue: Type of Lesion: KIDNEY: TRANSITIONAL CELL TUMOR, Dose [Carcinogen]: 30 MG/KG IN DISTILLED WATER ONCE, Promoter: NONE USED) | tumour outcome (control, treated, inhibition, significance) (Carcinogen: DIMETHYLNITROSAMINE, 62-75-9, Dose [Inhibitor]: 1 MG IN CASTOR OIL ADMINISTERED TO IMMATURE RATS 1/4 WK FOR LIFE BEGINNING 100 D POST CARCINOGEN DOSE (STUDY DURATION: 1, Route [Inhibitor]: SUBCUTANEOUS, Species: RAT, Strain/Sex: STRAIN-CD/MALE, Target Tissue: Type of Lesion: LUNG: ALVEOGENIC TUMOR, Dose [Carcinogen]: 30 MG/KG IN DISTILLED WATER ONCE, Promoter: NONE USED) | tumour outcome (control, treated, inhibition, significance) (Carcinogen: DIMETHYLNITROSAMINE, 62-75-9, Dose [Inhibitor]: 1 MG IN CASTOR OIL ADMINISTERED TO MATURE RATS 1/4 WK FOR LIFE BEGINNING 100 D POST CARCINOGEN DOSE (STUDY DURATION: 140, Route [Inhibitor]: SUBCUTANEOUS, Species: RAT, Strain/Sex: STRAIN-CD/MALE, Target Tissue: Type of Lesion: KIDNEY TUBULE: ADENOMA, Dose [Carcinogen]: 30 MG/KG IN DISTILLED WATER ONCE, Promoter: NONE USED) | tumour outcome (control, treated, inhibition, significance) (Carcinogen: DIMETHYLNITROSAMINE, 62-75-9, Dose [Inhibitor]: 1 MG IN CASTOR OIL ADMINISTERED TO MATURE RATS 1/4 WK FOR LIFE BEGINNING 100 D POST CARCINOGEN DOSE (STUDY DURATION: 140, Route [Inhibitor]: SUBCUTANEOUS, Species: RAT, Strain/Sex: STRAIN-CD/MALE, Target Tissue: Type of Lesion: LUNG: ALVEOGENIC TUMOR, Dose [Carcinogen]: 30 MG/KG IN DISTILLED WATER ONCE, Promoter: NONE USED) | tumour outcome (control, treated, inhibition, significance) (Carcinogen: 7,12-DIMETHYLBENZ[A]ANTHRACENE, 57-97-6, Dose [Inhibitor]: 0, 162 NMOL 2/WK APPLIED SIMULTANEOUSLY WITH EACH PROMOTER DOSE FOR 18 WK (STUDY DURATION: 18 WK), Route [Inhibitor]: DERMAL, Species: MOUSE, Strain/Sex: ICR/FEMALE, Target Tissue: Type of Lesion: SKIN: TUMOR, Dose [Carcinogen]: 100 UG IN 100 µL ACETONE ONCE, Promoter: 12-O-TETRADECANOYLPHORBOL-13-ACETATE, 16561-29-8)
1 | CCCCC(=O)O[C@H]1CC[C@H]2[C@@H]3CCc4cc(O)ccc4[C@H]3CC[C@]12C | 15/28 (54%), 9/25 (36%), 33%, not calculated | 16/28 (57%), 14/25 (56%), 2%, not significant | 1/28 (4%), 0/25 (0%), 100%, not significant | 19/28 (68%), 6/25 (24%), 65%, p<0.001 | 16/26 (62%), 18/28 (64%), -3%, not significant | 13/26 (50%), 3/28 (11%), 78%, p<0.05 | 
2 | C[C@]12CC[C@]3(C1)[C@H](CC2=O)C[C@@H](OC(=O)c1ccccc1)[C@H]1[C@](C)(C(=O)O)CCC[C@@]13C |  |  |  |  |  |  | 90%, 50%, 44%, not significant
